Data reported in US9664690B1, “Molecular diagnostic kits for evaluating stress” (The National Institute for Biotechnology in the Negev Ltd., priority 2013, dated 2017).

Test system: PBMCs
Test: GR antagonist block of MP immunosuppressive effects in anti-CD3 stimulated PBMCs (IFNg ELISA)
Type: cell-based, human
Settings: plate-bound anti-CD3 48 hours, MP plus mifepristone
Experimental: Peripheral blood lymphocytes were stimulated in 96-well culture plate (2×10^5 cells/well) with plate bound anti-CD3 mAb (0.5 μg/ml), and cultured for 48 h at 37° C. The cultured supernatants were removed and stored at […]. Cytokine concentration in the supernatants were measured by ELISA using human cytokine kits.
Another approach to investigate the functionality of GR is by the examination of the responsiveness of immune cell subsets to the glucocorticoid antagonist, mifepristone. […] This indicates an impairment in GR signaling which contributes to steroid resistance, which could be tested in stressed and non-stressed individuals as described herein. Such an impairment could also optionally act as a biomarker for the stress diagnostic kit according to at least some embodiments thereof.
PBMCs were purified from young healthy-aged and AD subjects, stimulated by plate-bound anti-CD3 mAb (0.5 micro-g/ml) for 48 hours in the presence of MP or with both MP and GR antagonist, mifepristone. The cultured supernatants were examined for IFNg production by ELISA; the results are shown as percentage of the levels measured without MP.

CC#C[C@]1(O)CC[C@H]2[C@@H]3CCC4=CC(=O)CCC4=C3[C@@H](c3ccc(N(C)C)cc3)C[C@@]21C [mifepristone]
blocking of MP immunosuppressive effects (IFNg production) (PBMCs of aged and Alzheimer's disease (AD) subjects): impaired
blocking of MP immunosuppressive effects (IFNg production) (PBMCs of young subjects): partially blocks
